From US8232253B2, “Treatment of lung cancer” (Ramot at Tel-Aviv University Ltd., priority 2006, dated 2012)

Legend:
[1] = system: human NSCLC cell lines H1734, H2030, H1975, H3255; assay: Alamar blue viable cell assay in NSCLC cell lines; assay type: cell-based; details: increasing FTS concentrations, 96 hours; H1734, H2030 (KRAS mutations), H1975, H3255 (EGFR mutations)
Protocol: To determine whether FTS sensitized other human NSCLC cell lines to cell death, experiments were conducted on cell lines H1734 and H2030 (KRAS mutations) and H1975 and H3255 (EGFR mutations). The four cell lines were grown in increasing concentrations of FTS (dissolved in DMSO). After 96 hours, viable cells were quantified using an Alamar blue assay. Results are the mean±standard error of three independent experiments, in which there were 3 replicates of each condition, as shown in FIG. 15.

A549 cells [2] = assay: Anchorage-independent colony formation assay in soft agar; assay type: cell-based; details: Homo sapiens, A549, 456 h, 19 days, read-out: inhibition of A549 cell growth in soft agar
Protocol: Noble agar (2% and 0.6%; Difco, Detroit, Mich.) was prepared in water and autoclaved. The 2% agar was melted in a microwave oven, mixed 1:1 with medium (×2 Kaighn's modification of Ham's F-12 medium with 20% FCS, 100 U/ml penicillin, and 0.1 mg/ml streptomycin) and poured onto 96-well plates (50 μl per well) to provide the 1% base agar. The 0.6% agar (5 ml) was mixed with 5 ml of medium (×2), containing 8×10^4 A549 cells, and the mixture (50 μl) was plated on top of the base agar. The cells were incubated for 19 days at 37° C. with or without the indicated concentrations of FTS (6 wells for the control and for each treatment) and colonies were stained with MTT (1 mg/ml for 4 h). The colonies were then visualized by light microscopy, imaged, and counted using the ImagePro software. Next, to determine the effect of FTS on the anchorage-independent growth of A549 cells, a soft agar assay was performed. The cells were seeded in soft agar and treated with increasing concentrations of FTS 0 μM, 50 μM and 100 μM (FIGS. 12A-12B). Control cells were treated with 0.1% Me2SO4 (DMSO). FTS inhibited A549 cell growth in soft agar by 27±5.5% and 58±21% at 50 μM and 100 μM FTS, respectively. Thus, FTS inhibited the anchorage-independent growth of A549 cells.

A549 cells [3] = assay: A549-cell-implanted nude mouse model, tumor growth; assay type: in vivo, nude mice
Protocol: Nude mice (6 weeks old) were housed in barrier facilities on a 12-h light/dark cycle. Food and water were supplied ad libitum. On day zero, A549 or HTB-58 cells (5×10^6 cells in 0.1 ml PBS) were implanted subcutaneously (s.c.) just above the right femoral joint. After 5 or 11 days the mice were separated randomly into control groups that had received only the vehicle and FTS-treated groups. Daily FTS treatments were administered either intraperitoneally (i.p.) or orally. Tumor volumes or weights were determined as described in Barkan, B., Starinsky, S., Friedman, E., Stein, R., Kloog, Y., Clin Cancer Res 12:5533-42 (2006). Gemcitabine treatment (36 mg/kg, i.p.) was administered every 4 days.
To determine whether FTS inhibited tumor growth in vivo, experiments were conducted using a nude mouse model. The lung cancer cells were implanted s.c. above the right femoral joint and the mice were then treated with FTS. In a first experiment, the effect of i.p. administration of FTS on tumor growth in A549 cells was assessed. Treatment was started 5 days after cell implantation, by which time the tumors were palpable. Tumor volumes were determined 24 days after implantation in two groups of mice (n=8) that had received daily i.p. administration of either the vehicle (control) or 10 mg/kg FTS.
In an additional set of experiments, the A549-cell-implanted nude mouse model was used to examine the effect of orally administered FTS on tumor growth. First, cells were implanted as described above and daily oral treatment with FTS (50 mg/kg; n=6) or vehicle (n=5) was started either 11 days (FIG. 14C) or 6 days (FIG. 14D) after implantation. […] Next, the effects of orally administered FTS, alone or in combination with gemcitabine, on A549-cell tumor growth was examined (FIG. 14D). Six days after cell implantation, mice were divided into four groups (n=8 per group) and treated orally with vehicle alone (control), FTS alone (60 mg/kg), vehicle and gemcitabine (36 mg/kg, i.p. every 4 days), or FTS and gemcitabine. Treatments with gemcitabine began 1 week after FTS treatment was started.

A549 cells [4] = assay: BrdU incorporation into DNA; assay type: cell-based; details: Homo sapiens, 75 μM FTS, 48 h, read-out: inhibition of incorporation of BrdU into DNA relative to vehicle-treated control
Protocol: A549 cells were plated on glass cover slips (1.2×10^5 cells/well in 6-well plates) and incubated for 24 h in medium containing 5% FCS. The cells were then incubated for 24 h with or without 75 μM FTS and then for 24 h with 5-bromo-2-deoxyuridine (BrdU) (Zymed BrdU labeling kit, 1:100 dilution). Cells were fixed with 4% paraformaldehyde, permeabilized with 0.2% Triton X-100 (BDH, Poole, UK), washed with PBS, blocked with TBS Tween (TBST; 50 mM Tris, pH 7.4, 100 mM NaCl, 0.1% Tween 20) containing 1% bovine serum albumin (BSA), treated sequentially with 2 N HCl and 0.1 M sodium borate pH 8.5, and then blocked with goat γ-globulin and washed with TBST-BSA (described above). The cells were then labeled successively with mouse anti-BrdU antibody (Ab) (Zymed kit; 1:50 dilution), biotinylated rabbit anti mouse IgG (5 μg/ml), and Cy3-streptavidin (1.5 μg/ml). Cells with BrdU-stained nuclei were counted under a fluorescence microscope.
To investigate the effect of FTS on lung cancer cell proliferation, we first incubated A549 cells that harbor the activated K-ras gene mutated at codon 12. A549 cells are commonly used as a model for drug screening. […] The number of cells in the FTS-treated cultures was determined by direct counting of A549 cells grown for 6 days in the presence of FTS and was expressed as a percentage of the number recorded in the controls. […]

[5] = 50 mg/kg FTS oral daily from day 11, after 16 days of treatment (FIG. 14C)
[6] = 60 mg/kg FTS oral alone, from day 6 (FIG. 14D)

Question: For `CC(C)=CCC/C(C)=C/CC/C(C)=C/CSc1ccccc1C(=O)O` [FTS, S-farnesylthiosalicylic acid], which “sensitization of NSCLC cell lines to cell death” value [1] is on record?
Answer: sensitized

Question: And the inhibition at 50 µM (A549 cells [2]; 50 μM FTS)?
Answer: 27 ± 5.5%

Question: And the inhibition at 100 µM (A549 cells [2]; 100 μM FTS)?
Answer: 58 ± 21%

Question: What about the “inhibition of tumor growth relative to control (tumor volume)” value (A549 cells [3]; 10 mg/kg FTS i.p. daily from day 5, 24 days after implantation) of the same compound?
Answer: 53.8%

Question: And the “inhibition in tumor growth” value (A549 cells [3]; [5])?
Answer: 53.7±19.1%

Question: And the “tumor weight (mean±SD)” value (A549 cells [3]; [5])?
Answer: 0.4 ± 0.19 g

Question: What about the “inhibition in tumor growth” value (A549 cells [3]; [6]) of the same compound?
Answer: 46.2±16.3%

Question: And the “tumor weight (mean±SD)” value (A549 cells [3]; [6])?
Answer: 0.49 ± 0.15 g

Question: What about the inhibition at 75 µM (A549 cells [4]) of the same compound?
Answer: 56.7 ± 17.4%
